Experimental data as given in patent US4036834A, “Derivatives of 7-(α-hydroxy-substituted pyridyl carboxamido-α p h Δ^3 -cephem-4-carboxylic acid” (Yamanouchi Pharmaceutical Co., Ltd., priority 1974, dated 1977).
Converted amounts (≈) assume the structure as drawn. Where two headings read alike, the source gives them in different places.

Columns and labels:
Assay type in all cases: cell-based
[1] = system: proteus mirabilis IFM OM-19; assay: MIC against proteus mirabilis IFM OM-19; settings: IFMOM19
Text: (§1) Now, for illustrating the excellent pharmacological effects of the compounds of this invention, the values of MIC (γ/ml) of the compounds against various bacteria are shown in the following table, the compounds of this invention are shown by example numbers.
3. proteus mirabilis IFM OM-19

[2] = system: pseudomonas aeruginosa ATCC 8689; assay: MIC against pseudomonas aeruginosa ATCC 8689; settings: ATCC8689
Text: as §1
4: pseudomonas aeruginosa ATCC 8689

[3] = system: salmonella enteritidis; assay: MIC against salmonella enteritidis; settings: Salmonella enterica
Text: as §1
10: salmonella enteritidis

[4] = system: proteus vulgaris OX 19US; assay: MIC against proteus vulgaris OX 19US; settings: OX19US; proteus vulgaris OX 19US; read-out: MIC
Text: as §1
2. proteus vulgaris OX 19US

[5] = system: salmonella typhi H901W; assay: microbe, parasite or virus in culture; settings: Salmonella enterica
[6] = system: Bacillus subtilis ATCC 6633; assay: MIC against Bacillus subtilis ATCC 6633; settings: ATCC6633; Bacillus subtilis ATCC 6633; read-out: MIC
Text: as §1
14: Bacillus subtilis ATCC 6633

[7] = system: Proteus vulgaris OXK US; assay: MIC against Proteus vulgaris OXK US; settings: Proteus vulgaris OXK US; read-out: MIC
Text: as §1
1: Proteus vulgaris OXK US

[8] = system: staphylococcus aureus 209P; assay: MIC against staphylococcus aureus 209P; settings: read-out: MIC
Text: as §1
16: staphylococcus aureus 209P

[9] = system: Shigella sonnei II 37148; assay: MIC against Shigella sonnei II 37148; settings: II37148
Text: as §1

[10] = system: escherichia coli Kauffman 0-1; assay: MIC against escherichia coli Kauffman 0-1
Text: as §1
7: escherichia coli Kauffman 0-1

[11] = system: bacillus megatherium 10778; assay: MIC against bacillus megatherium 10778; settings: bacillus megatherium 10778; read-out: MIC
Text: as §1

[12] = system: Staphylococcus Onuma; assay: MIC against Staphylococcus Onuma
Text: as §1

[13] = system: Klebsiella pneumoniae ATCC 10031; assay: MIC against Klebsiella pneumoniae ATCC 10031; settings: ATCC10031
Text: as §1
8: Klebsiella pneumoniae ATCC 10031

[14] = system: pseudomonas aeruginosa 99 (Gentamycin resistant); assay: MIC against pseudomonas aeruginosa 99 (Gentamycin resistant)
Text: as §1
5: pseudomonas aeruginosa 99 (Gentamycin resistant)

[15] = system: staphylococcus Shimanishi; assay: MIC against staphylococcus Shimanishi; settings: staphylococcus Shimanishi; read-out: MIC
Text: as §1
17. staphylococcus Shimanishi

[16] = system: Pseudomonas ovalis IAM 1002; assay: MIC against Pseudomonas ovalis IAM 1002; settings: Pseudomonas putida, IAM1002
Text: as §1
6: Pseudomonas ovalis IAM 1002

[17] = system: Shigella flexnori 2a 1675; assay: MIC against Shigella flexnori 2a 1675; settings: 2A1675
Text: as §1

[18] = system: micrococcus flavus ATCC 10240; assay: MIC against micrococcus flavus ATCC 10240; settings: ATCC10240; micrococcus flavus ATCC 10240; read-out: MIC
Text: as §1

[19] = pseudomonas aeruginosa ATCC 8689, read-out: MIC
[20] = salmonella enteritidis, read-out: MIC
[21] = escherichia coli Kauffman 0-1, read-out: MIC
[22] = Klebsiella pneumoniae ATCC 10031, read-out: MIC
[23] = pseudomonas aeruginosa 99 (Gentamycin resistant), read-out: MIC
[24] = Pseudomonas ovalis IAM 1002, read-out: MIC
[25] = Staphylococcus Onuma, read-out: MIC

| SMILES | MIC [1] [µg/mL] | MIC [2, 19] [µg/mL] | MIC [3, 20] [µg/mL] | MIC [4] [µg/mL] | MIC [5] [µg/mL] | MIC [6] [µg/mL] | MIC [7] [µg/mL] | MIC [8] [µg/mL] | MIC [9] [µg/mL] | MIC [10, 21] [µg/mL] | MIC [11] [µg/mL] | MIC ([12]; Staphylococcus) [µg/mL] | MIC [13, 22] [µg/mL] | MIC [14, 23] [µg/mL] | MIC [15] [µg/mL] | MIC [17] [µg/mL] | MIC [18] [µg/mL] | MIC [16, 24] [µg/mL] | MIC ([13]; Klebsiella pneumoniae) [µg/mL] | MIC [12, 25] [µg/mL] | also measured |
| --- | --- | --- | --- | --- | --- | --- | --- | --- | --- | --- | --- | --- | --- | --- | --- | --- | --- | --- | --- | --- | --- |
| O=C(O)C1=C(CSc2cc(S)ncn2)CS[C@@H]2[C@H](NC(=O)[C@H](NC(=O)c3cnccc3O)c3ccccc3)C(=O)N12 [Example 5, 7-[D-α-(4-hydroxynicotinoylamido)-α-phenylacetamido]-3-(4-mercaptopyrimidin-6-yl)thiomethyl-Δ^3-cephem-4-carboxylic acid] | 0.19 (≈ 0.311 µM) | 25 (≈ 40.9 µM) | 0.39 (≈ 0.639 µM) | 0.78 (≈ 1.28 µM) | < 0.09 | 0.39 (≈ 0.639 µM) | < 0.09 | 0.78 (≈ 1.28 µM) | 6.25 (≈ 10.2 µM) | 3.13 (≈ 5.13 µM) | 0.19 (≈ 0.311 µM) | 6.25 (≈ 10.2 µM) | 3.13 (≈ 5.13 µM) | 25 (≈ 40.9 µM) | 3.13 (≈ 5.13 µM) | 6.25 (≈ 10.2 µM) | 3.13 (≈ 5.13 µM) |  |  |  | MIC [16]: 6.25 µg/mL (≈ 10.2 µM) |
| Cc1nnc(SCC2=C(C(=O)O)N3C(=O)C(NC(=O)C(NC(=O)c4cccnc4)c4ccccc4)C3SC2)s1 (centres unmarked) [Example C-2, reference compound] | 25 (≈ 42.9 µM) | > 100 |  |  | > 100 | 1.56 (≈ 2.68 µM) | 6.25 (≈ 10.7 µM) |  | 100 (≈ 172 µM) | 100 (≈ 172 µM) | 3.13 (≈ 5.37 µM) |  | 12.5 (≈ 21.5 µM) | > 100 |  | 50 (≈ 85.8 µM) | 1.56 (≈ 2.68 µM) | > 100 |  |  |  |
| O=C(O)C1=C(CSc2ccc(S)nn2)CS[C@@H]2[C@H](NC(=O)[C@H](NC(=O)c3cnccc3O)c3ccccc3)C(=O)N12 [Example 1, 7-[D-α-(4-hydroxynicotinoylamido)-α-phenylacetamido]-3-(3-mercaptopyridazin-6-yl)thiomethyl-Δ^3-cephem-4-carboxylic acid] | 0.39 (≈ 0.639 µM) |  |  | 0.78 (≈ 1.28 µM) | 0.39 (≈ 0.639 µM) | 0.39 (≈ 0.639 µM) | 0.19 (≈ 0.311 µM) | 0.39 (≈ 0.639 µM) | 12.5 (≈ 20.5 µM) |  | 0.39 (≈ 0.639 µM) | 6.25 (≈ 10.2 µM) |  | 50 (≈ 81.9 µM) | 1.56 (≈ 2.55 µM) | 6.25 (≈ 10.2 µM) | 3.13 (≈ 5.13 µM) | 25 (≈ 40.9 µM) | 6.25 (≈ 10.2 µM) |  | MIC ([2]; Pseudomonas aeruginosa): 100 µg/mL (≈ 164 µM); MIC ([3]; ENTERITIDIS): 0.39 µg/mL (≈ 0.639 µM); MIC ([10]; Escherichia coli): 6.25 µg/mL (≈ 10.2 µM) |
| CC(=O)OCC1=C(C(=O)O)N2C(=O)[C@@H](NC(=O)[C@H](N)c3ccccc3)[C@H]2SC1 [Cephaloglycin, reference compound] | 100 (≈ 247 µM) | > 100 | 3 (≈ 7.4 µM) | 100 (≈ 247 µM) | 3 (≈ 7.4 µM) | 0.3 (≈ 0.74 µM) | 25 (≈ 61.7 µM) | 1 (≈ 2.47 µM) | 10 (≈ 24.7 µM) | 100 (≈ 247 µM) | 1 (≈ 2.47 µM) |  | 25 (≈ 61.7 µM) |  | 3 (≈ 7.4 µM) | 3 (≈ 7.4 µM) | 0.3 (≈ 0.74 µM) | > 100 |  | 3 (≈ 7.4 µM) | MIC ([14]; Pseudomonas aeruginosa): > 100 µg/mL |
| Cn1nnnc1SCC1=C(C(=O)O)N2C(=O)C(NC(=O)C(NC(=O)c3cccnc3)c3ccccc3)C2SC1 (stereo not drawn) [Example C-1, 7-(α-nicotinoylamido-α-phenylacetamido)-3-(1-methyl-1H-tetrazle-5-ylthiomethyl)-Δ^3-cephem-4-carboxylic acid, reference compound] | 12.5 (≈ 22.1 µM) | > 100 |  |  | > 100 | 3.13 (≈ 5.52 µM) | 3.13 (≈ 5.52 µM) |  | 100 (≈ 176 µM) | 50 (≈ 88.2 µM) | 3.13 (≈ 5.52 µM) |  | 12.5 (≈ 22.1 µM) | > 100 |  | 50 (≈ 88.2 µM) | 1.56 (≈ 2.75 µM) | > 100 |  |  |  |
| CC(=O)Nc1nc(S)nc(SCC2=C(C(=O)O)N3C(=O)[C@@H](NC(=O)[C@H](NC(=O)c4cnccc4O)c4ccccc4)[C@H]3SC2)n1 [Example 4, 7-[D-α-(4-hydroxynicotinoylamido)-α-phenylacetamido]-3-(4-mercapto-6-acetylamino-1,3,5-triazin-2-yl)thiomethyl-Δ^3-cephem-4-carboxylic acid] | 0.39 (≈ 0.583 µM) | 50 (≈ 74.8 µM) | 0.78 (≈ 1.17 µM) | 6.25 (≈ 9.35 µM) | 0.39 (≈ 0.583 µM) | 0.78 (≈ 1.17 µM) | 0.19 (≈ 0.284 µM) | 1.56 (≈ 2.33 µM) | 12.5 (≈ 18.7 µM) | 6.25 (≈ 9.35 µM) | 0.39 (≈ 0.583 µM) |  |  | 50 (≈ 74.8 µM) | 6.25 (≈ 9.35 µM) | 12.5 (≈ 18.7 µM) | 6.25 (≈ 9.35 µM) | 50 (≈ 74.8 µM) | 12.5 (≈ 18.7 µM) | 6.25 (≈ 9.35 µM) |  |
